In patent US4829061A, “1-(4-Hydroxy-3,5-di-tert.-butylbenzoyl)homopiperazine, various derivatives thereof, processes for the preparation of these compounds, medicaments containing them, and their use” (Hoechst Aktiengesellschaft, priority 1987, dated 1989):

Columns and labels:
cGvH disease = assay: Chronic graft-versus-host (cGvH) reaction in the mouse; format: in vivo, mouse (female (DBA/2×C57Bl/6)F1); settings: 6 weeks from day 21
Description: (§1) The antiinflammatory effect of the compounds of the formula I, according to the invention, was tested on adjuvant arthritis, and the effect on forms of rheumatic disorders having a severe course (chronic graft-versus-host diseases and autoimmune diseases mediated by immune complexes) was tested on the chronic graft-versus-host (cGvH) reaction in the mouse and in the reverse passive Arthus reaction in the rat in accordance with the animal models described below. The tolerability was determined by determining the toxicity in rats, namely by continuous administration for 14 days.
The features of graft-versus-host disease, which is based on an immune reaction originating from the transplant and directed against the host tissue, are, in the form having an acute course which almost always ends fatally, enlargement of the spleen, hepatomegaly, lymph node hypertrophy, hemolytic anemia, low immunoglobulin and complement levels, and diminished immunoreactivity. The chronic form of the disease, which has a somewhat milder course, results in lymphadenopathy, immune complex glomerulonephritis and excessive formation of non-organ-specific autoantibodies. The clinical picture of systemic lupus erythematosus (SLE), which is likewise one of the autoimmune diseases, has similar features.
Investigation of the compounds used according to the invention on the course of the cGvH disease induced in response to two injections of spleen and thymus cells, mixed together, in female mice of the (DBA/2×C57Bl/6)F1 generation was carried out by the design of experiment described by S. Popovic and R. R. Bartlett (Agents and Actions 21 (1987), 284-286), with intravenous administration, at a time interval of 7 days, of, in each case, 5×10^7 DBA/2 cells, likewise obtained from female donor animals, in 0.2 ml of culture medium. For reliable assessment of the course and appearance of the disease, a group of healthy animals was included as negative controls in all the experiments. The 6-week oral treatment of the animals with the disease took place from day 21 after the first donor cell injection, with administration once a day of the test substance or the pure vehicle (positive controls). […]
The action of the product was assessed on the basis of the inhibition of proteinuria and the cGvH index. The animals with the disease develop, as a consequence of the damage to nephrons due to deposition of immune complexes on the basement membranes of the glomeruli, a pronounced proteinuria which correlates with the extent of the glomerulonephritis and can easily be quantified by the increase in the amount of protein excreted with the urine. The second measured parameter, the cGvH index, is based on the great enlargement of the spleen (splenomegaly) caused by the cGvH reaction. […]

[1] = system: reverse passive Arthus reaction; assay: Reverse passive Arthus reaction in the rat; format: in vivo, rat (female and male Sprague-Dawley); settings: 1 hour before induction, paw volume 4 hours after ovalbumin challenge
Description: as §1
The experimental animals used were female and male Sprague-Dawley rats with a body weight between 80 and 100 g. The rats were divided into groups each comprising 8 animals. 1 hour before the Arthus reaction was induced by injection of 0.1 ml of an anti-rat IgG solution (0.6 mg/ml) into the right rear paw, the particular test substance or the pure vehicle (positive controls) was administered orally. Sodium chloride solution was injected into the left paw. A group of non-sensitized animals (negative controls) was likewise treated with ovalbumin in order to be able to rule out non-specific reactions to the protein. The parameter used to measure the action of the products was the percentage change in the increase in paw volume compared with that in the control group (positive controls) which, although sensitized, was untreated, 4 hours after the ovalbumin challenge, when the swelling had reached its maximum.

[2] = Determination of toxicity in the rat, 14 days (weight gain); format: in vivo, rat (male and female Wistar); settings: 50 or 75 mg/kg p.o. each day for 14 days
Description: as §1
Groups of 10 male and female Wistar rats were fed each day for a period of 14 days with 50 or 75 mg/kg p.o., and were weighed every 2 days. The experiment was terminated after 14 days, and the weight gain was determined. The same number of rats not treated with the products acted as controls. […] This is regarded as a critical parameter for the tolerability of a compound.

[3] = system: adjuvant-induced arthritis in the rat; assay: Adjuvant arthritis (method of Pearson), paw volume; format: in vivo, rat (male, Wistar-Lewis strain); settings: 50 mg/kg p.o. once a day, day 1 to 5; reduction in increase in paw volume vs control
Description: as §1
The investigations were carried out by the method of Pearson (Arthrit. Rheum. 2 (1959) page 44). The test animals used were male rats of a Wistar-Lewis strain with a body weight between 130 and 200 g. The compounds to be tested were administered orally (p.o.) in doses of 50 mg per kg of body weight once a day from the 1st to the 5th day of the experiment. The animals in a control group received only the vehicle. Each product and control group comprised 8 animals. The criterion used for an effect was the percentage reduction in the increase in paw volume compared with that in the untreated control group.

CC(C)(C)c1cc(C(=O)N2CCCN(C(=O)OCc3ccccc3)CC2)cc(C(C)(C)C)c1O [Example 1, 1-(4-Hydroxy-3,5-di-tert.-butylbenzoyl)-4-benzyloxycarbonylhomopiperazine]
% inhibition Proteinuria (cGvH disease; 5 mg/kg/day p.o.): 100% | % inhibition cGvH index (cGvH disease; 5 mg/kg/day p.o.): 57% | % inhibition Proteinuria (cGvH disease; 20 mg/kg/day p.o.): 80% | % inhibition cGvH index (cGvH disease; 20 mg/kg/day p.o.): 75% | Reverse passive Arthus reaction, % inhibition ([1]; 100 mg/kg p.o.): 25% | change in the weights (weight gain) [2]: no significant change in the weights | % inhibition in paw volume day 5 [3]: 25%

CC(C)(C)c1cc(C(=O)N2CCCNCC2)cc(C(C)(C)C)c1O [Example 2, 1-(4-Hydroxy-3,5-di-tert.-butylbenzoyl)homopiperazine]
Reverse passive Arthus reaction, % inhibition ([1]; 20 mg/kg p.o.): 28% | Reverse passive Arthus reaction, % inhibition ([1]; 25 mg/kg p.o.): 37% | change in the weights (weight gain) [2]: no significant change in the weights | % inhibition in paw volume day 5 [3]: 34%
